The record followed here is patent US20220267394A1, “COMPOUNDS FOR INDUCING TISSUE FORMATION AND USES THEREOF” (HISTIDE AG, priority 2015, published 2022).

The subject of this assay is hMSCs. Description: Loss of stemness: STRO-1 expression by immunostaining. The format is cell-based, human. How it is done: The cells were first fixed for 20 min with 4% paraformaldehyde/PBS at 4° C. After fixation, the cells were permeabilized in PBS containing 1% Triton X-100 for 15 min. Runx2, Osterix, Stro-1, Vinculin, Phalloidin, Osteopontin, Sox2, Sox9 antibodies were visualized by treating the cells with 1% (v/v) specific monoclonal antibodies for 1 hour at 37° C. Then the samples were incubated with Alexa Fluor® 568 or 647 (F(ab′)2 fragment of IgG(H+L)) during 30 min at room temperature. The cell nuclei were counterstained in 20 ng/mL DAPI for 10 min at room temperature.
For this type of quantification the freeware image analysis ImageJ® software was used. The raw image was first converted to an 8-bit file, and then the unsharp mask feature was used (settings 1:0.2) to remove the image background (rolling ball radius 10). After smoothing, the resulting image, which appears similar to the original photomicrograph but with minimal background, was then converted to a binary image by setting a threshold. Threshold values were determined empirically by selecting a setting, which gave the most accurate binary image for a subset of randomly selected photomicrographs. The cell area was determined by manual delineation on raw fluorescent images. Total contact area and mean contact area per cell were calculated by “analyse particules” in ImageJ®. A minimum of 30 cells per condition were analyzed. Stro-1, CD-34+, and CD-105 expressions were determined using this procedure.
hMSCs were cultured on conventional cell culture plastic plates with or without the presence in the cell culture media of different GFR-binding compounds as described herein (SEQ ID NO: 50 to 88) in solution. […] This was probed by Stro-1 immunostaining after cell fixation as described in the Methods section. The quantification of Stro-1 positive contact numbers and areas was performed as described in the Methods section. A minimum of 30 cells per condition were analyzed. Stro-1 positive marrow cells are multipotential and capable of differentiating into multiple mesenchymal lineages including stromal cells with a phenotype resembling vascular smooth muscle cells that can support hematopoiesis, adipocytes, osteoblasts, and chondrocytes.
Using the method detailed in the description, the RMSD of 57 previously reported peptide sequences have been determined (Table 6) and correlated with the expression of STRO-1 in solution. […] One should note that it is commonly admitted that the expression of STRO-1 in a cell is indicative of a cell that is in a substantially non-differentiated state and the decrease of its expression of at least about 20% is indicative of a cell that has started a process of differentiation but which may not result in the differentiation of the cell. A decrease of more than 50% would be indicative of the presence of a significant shift towards a differentiated state. A decrease of more than 70% would be indicative of the presence of a very important shift towards a differentiated state. A sustained decrease (e.g. for at least 96 h) of more than 50% or 70% would be indicative of the presence of an even more important shift towards a differentiated state.
Likewise, using the method detailed in the description, the RMSD of 75 GFR-binding peptide sequence representatives of the invention have been determined (Table 8) and correlated with the expression of STRO-1. SEQ ID NO: 1 to 49 were tested in combination with a bioactive carrier as defined above in the Examples Section (i.e. titanium, ceramics, collagen, etc. . . . ), whereas SEQ ID NO: 2242 to 2267 were tested in solution.

Setting [1] is: Table 6, previously reported peptides in solution, 400 ng/mL.
Where [2] appears, read: Table 8, SEQ ID NO: 1 to 49 tested in combination with a bioactive carrier (titanium, ceramics, collagen, etc.).
[3] abbreviates: Table 8, SEQ ID NO: 2242 to 2267 tested in solution.

Where no end group is shown, it is not given here.

For the substance “2178 (SPISILVVPELDASLPEKRPSLDGFEALLVYNAPKA; Peptide reported in US20120246748, SEQ ID NO:119912) [compound 2178]”, under setting [1], the “STRO-1 expression (%)” value is 82%.

As to “20 (CKVGKASSVPTKLNAISTLYLDDSSNVILKNYQ; not fully specified; ends and bridges not checked) [compound 20]”, the “STRO-1 expression (%)” value under setting [2] worked out at 18%.

As for “2186 (SVPAVCSATSATGPYSSVTVTSWPSIVATGGTT; Peptide reported in EP1687419, SEQ ID NO:42) [compound 2186]”, the “STRO-1 expression (%)” value under setting [1] amounted to 92%.

As to “2174 (CVTKPLSSLLFPNWNTTTTPTPP; Peptide reported in WO2013040142, SEQ ID NO:642255) [compound 2174]”, the “STRO-1 expression (%)” value under setting [1] was determined as 92%.

For “2253 (VPQQQEPLTTLYYDEYDKVVEQLSNQQVKS; GFR-binding peptide) [compound 2253]”, the “STRO-1 expression (%)” value under setting [3] was determined as 18%.

As to “2165 (LMDLARMPSCLRGERAVPQDTTGYFTWSSNITPLNFIF; Peptide reported in US20110300149, SEQ ID NO:32) [compound 2165]”, the “STRO-1 expression (%)” value under setting [1] came to 92%.

As to “2244 (VPTVVSAISTLYLRIKPHQGQHLKNYQVVVVE; GFR-binding peptide) [compound 2244]”, the “STRO-1 expression (%)” value under setting [3] was found to be 21%.

Turning to “2246 (APTGGSATSMLYYDKGVVTYLRKHRGGVVK; GFR-binding peptide) [compound 2246]”, under setting [3], the “STRO-1 expression (%)” value is reported as 23%.

Regarding “2159 (PIIYYVGRNVRVEQLSNMVVRA; Peptide reported in US5436228, SEQ ID NO:14) [compound 2159]”, under setting [1], the “STRO-1 expression (%)” value is listed as 92%.

With “2199 (APTQLSAISVL; Peptide reported in US20050250936, SEQ ID NO:71) [compound 2199]”, the “STRO-1 expression (%)” value under setting [1] came to 93%.

Regarding “2259 (TQVAARPVQTRKIDDMGVPTKKATVAAEDH; GFR-binding peptide) [compound 2259]”, the “STRO-1 expression (%)” value under setting [3] was found to be 23%.

“2160 (PIIYYVGRNVRVEQLSNMVVRRA; Comparative sequence) [compound 2160]”: the “STRO-1 expression (%)” value under setting [1] came out at 98%.

As for “5 (CASASPXXVSQDLNAISVLYFIGKTPKILKKYRMIVKSXKXS; GFR-binding peptide; MOD_RES (7), (8), (39), (41): Xaa is C or S) [compound 5]”, under setting [2], the “STRO-1 expression (%)” value came out at 26%.

In the case of “2205 (KIPKPSSAPTELSAISMLYC; Peptide reported in WO2009151288, SEQ ID NO:5) [compound 2205]”, the “STRO-1 expression (%)” value under setting [1] was found to be 80%.

“10 (CPSSAPTQLSATSVLYYDDSSNVILRKHRQHNK; GFR-binding peptide) [compound 10]”: the “STRO-1 expression (%)” value under setting [2] stood at 19%.

In the case of “48 (CVPQRLSPISILYIDAANNVVYKQYE; GFR-binding peptide) [compound 48]”, the “STRO-1 expression (%)” value under setting [2] came to 18%.

As to “2211 (CCAPTELSAISVLYFDDSSNVILKKYRNMVVRACGCR; Comparative sequence) [compound 2211]”, the “STRO-1 expression (%)” value under setting [1] is listed as 81%.

Take “2192 (SFRTARANAPTGRSSLSGEKEQQEASTHS; Peptide reported in WO2013040142, SEQ ID NO:3136558) [compound 2192]”: under setting [1], the “STRO-1 expression (%)” value was 91%.

For “2170 (NPGASASPCCVSQDLEPLPIL; Peptide reported in JP06025288, SEQ ID NO:8) [compound 2170]”, the “STRO-1 expression (%)” value under setting [1] amounted to 86%.

Regarding “6 (CAVPKAXXAPTKLSATSVLYYDSSNNVVLRKHRNMVVK; GFR-binding peptide; MOD_RES (7), (8): Xaa is C or S) [compound 6]”, under setting [2], the “STRO-1 expression (%)” value was 26%.

With “47 (CAAAPASXXVPARLSPISILYIAAAYKQYEDM; GFR-binding peptide; MOD_RES (8), (9): Xaa is C or S) [compound 47]”, the “STRO-1 expression (%)” value under setting [2] was 18%.

As for “2158 (VEQLSNMVVK; Peptide reported in US20130259924, SEQ ID NO:21667) [compound 2158]”, the “STRO-1 expression (%)” value under setting [1] is recorded as 98%.

In the case of “26 (GTPGPASSAVSQELSAISMLYLGGGLKNYQDM; GFR-binding peptide) [compound 26]”, the “STRO-1 expression (%)” value under setting [2] was found to be 22%.

As for “44 (CAAPASSSVPARLSPISILYIDAANNVVYKQYEDMVVE; not fully specified; ends and bridges not checked) [compound 44]”, the “STRO-1 expression (%)” value under setting [2] is given as 27%.

For “2185 (LGIAAIIFLQQVPAAFSATSPPG; Peptide reported in WO2013040142, SEQ ID NO:1139935) [compound 2185]”, the “STRO-1 expression (%)” value under setting [1] is recorded as 97%.

As to “12 (CKVPKASSVPTELSAISTLYLAAAALKNYQEM; GFR-binding peptide) [compound 12]”, under setting [2], the “STRO-1 expression (%)” value is given as 28%.

For “2187 (SVPAVCSATSATGPYSTATNTVWPSIVATGGTT; Peptide reported in EP1687419, SEQ ID NO:43) [compound 2187]”, the “STRO-1 expression (%)” value under setting [1] was determined as 92%.

As to “2208 (AETLHTLGLSAPVIESAISDAI; Peptide reported in WO2013040142, SEQ ID NO:629725) [compound 2208]”, the “STRO-1 expression (%)” value under setting [1] is 93%.

In the case of “29 (GTPGPKASSVPTELSPISTLYKDENEKVVLKYHYDMVVEGSGSR; not fully specified; ends and bridges not checked) [compound 29]”, the “STRO-1 expression (%)” value under setting [2] amounted to 21%.

“2164 (HIRSTTSSYVSLKSNITNRTIQTPTYSYT; Peptide reported in US20120216318, SEQ ID NO:347659) [compound 2164]”: the “STRO-1 expression (%)” value under setting [1] turned out to be 98%.

For the substance “23 (GTPGPKVPKPSSAPTQLSAISTLYLDEYDKVVLKNYQNMAVR; not fully specified; ends and bridges not checked) [compound 23]”, the “STRO-1 expression (%)” value under setting [2] was found to be 17%.

Consider “2257 (VPTGGEPLTTLYYNDKQQIIEQLSNGGEHS; GFR-binding peptide) [compound 2257]”, for which the “STRO-1 expression (%)” value under setting [3] is listed as 26%.

Regarding “2172 (PNYSVPAGNKPLSERE; Peptide reported in WO2013040142, SEQ ID NO:543064) [compound 2172]”, the “STRO-1 expression (%)” value under setting [1] amounted to 95%.

“2214 (KPCCAPTELSAISVLYFDDSSNVILKKYRNMVVRACGCR; Peptide reported in US20050250936, SEQ ID NO:122) [compound 2214]”: the “STRO-1 expression (%)” value under setting [1] was determined as 83%.

With “2203 (TCCVPELSAISMLYLDEN; Peptide reported in US5496552, SEQ ID NO:5) [compound 2203]”, the “STRO-1 expression (%)” value under setting [1] worked out at 84%.

As for “2176 (MQCRELVTQVTEEPISQTEDGEEQESTTTPRLKGQKKE; Peptide reported in US20070083334, SEQ ID NO:958173) [compound 2176]”, the “STRO-1 expression (%)” value under setting [1] was 85%.

Take “27 (GTPGPAPTKLSAISMLYLDSSNNVILRKHR; GFR-binding peptide) [compound 27]”: under setting [2], the “STRO-1 expression (%)” value turned out to be 19%.

“2242 (VPTAASAISILYLDAANNVVLKNYQAAVVE; GFR-binding peptide) [compound 2242]”: the “STRO-1 expression (%)” value under setting [3] came out at 17%.

On to “30 (GTPGPKASSVPTELSPISTLYKDENEKVVLKYHYDM; GFR-binding peptide) [compound 30]”, for which, under setting [2], the “STRO-1 expression (%)” value stood at 18%.

In the case of “22 (WWFWGKVPKPSSAPTQLSAISTLYLDEYDKVVLKNYQNMVVR; not fully specified; ends and bridges not checked) [compound 22]”, the “STRO-1 expression (%)” value under setting [2] stood at 17%.
